Two substances from patent US20250367235A1, “SYSTEMS AND METHODS FOR MODULATING A CELL PHENOTYPE” (XCELL BIOSCIENCES, INC., priority 2019, published 2025) can be followed below.

The experiment deals with PC-3, a prostate cancer cell line. In words: PBMC tumor cell killing co-culture with anti-PD-1 antibodies, cell viability by CellTiter Glo. It is filed as cell-based, human. The conditions noted are these: 1% O2, 2 PSI above ambient pressure vs ambient conditions; antibody 10 ug/ml; PBMCs with PC-3 at effector to target ratio 20:1; 5 days; average of 21 PBMC isolates; FIG. 2. The protocol: PBMCs were isolated from 21 healthy volunteers. The PBMCs were cultured together with target tumor cells, (PC-3, a prostate cancer cell line), at an effector to target ratio of 20:1. All cells were cultured in RPMI1640 medium supplemented with 10% fetal bovine serum over a 5 day period. PBMCs were not activated with IL-2. Cell viability was measured at the end of the 5 day period by CellTiter Glo Assay (Promega) with 3 or 4 technical replicates. Each of the 21 PBMC isolates, and target cells, was cultured under either ambient conditions, or hypoxic and hyperbaric conditions (1% O2, 2 PSI above ambient pressure), and with or without anti-PD-1 antibodies. The anti-PD-1 antibodies used were Nivolumab and Pembrolizumab (10 ug/ml). Average results across the 21 different PBMC isolates are shown in FIG. 2, with error bars representing the standard error of the mean, and p values were calculated using paired Student's t tests.
For orientation: Cellular ATP, detected with luciferase, serves as a proxy for viable cell number.

As for Nivolumab, the “effect of hypoxic and hyperbaric conditions on efficacy of treatment at activating PBMCs to kill tumor cells” value is “did not have a noticeable effect”. Consider Pembrolizumab, for which the “effect of hypoxic and hyperbaric conditions on efficacy of treatment at activating PBMCs to kill tumor cells” value is “more efficient at activating PBMCs to kill tumor cells”.
